Data taken from patent US6486098B1, “Herbicidal phenoxypropionic acid N-alkyl-N-2-fluorophenyl amide compounds” (Dongbu Hannong Chemical Co. Ltd., priority 1999, dated 2002).
“And” between values parts separate entries of the source, which are not always exact repeats. Equal values may be shown once.

What was measured:
[1] = tested on: Barnyard grass; assay: Leaf treatment test, 4 leaves, barnyard grass (Table 7); format: in vivo, Echinochloa crus-galli Beauv. var. caudata Kitagawa
Method: (§1) Seeds of rice, wheat, barley, corn, cotton, barnyard grass, common sorgum, large crabgrass and fall panicum were seeded at a pot with a surface area of 600 cm^2. […] 14 days after the treatment, the degree of damage to the plants was rated in % damage in comparison to the development of untreated control.
(§2) Among the compounds of the formula (1), herbicidal activity of the compounds in table 5 is represented in the following table 6 and 7.

[2] = tested on: PANDI (Fall panicum); assay: Leaf treatment test, fall panicum; format: in vivo, Panicum dichotomiflorum Michx; conditions: 14 days after treatment
Method: as §1

[3] = tested on: ORYSA (Rice); assay: Leaf treatment test, rice; format: in vivo, Oryza sativa L. cv. Dongjin; conditions: 14 days after treatment
Method: as §1

[4] = tested on: ECHCG (Barnyard grass); assay: Leaf treatment test, barnyard grass; format: in vivo, Echinochloa crus-galli Beauv. var. caudata Kitagawa; conditions: leaf treatment at three leaves, 14 days after treatment
Method: as §1

[5] = tested on: ZEAMX (Corn); assay: Leaf treatment test, corn; format: in vivo, Zea mays L.; conditions: 14 days after treatment
Method: as §1

[6] = tested on: SORBI (Common sorgum); assay: Leaf treatment test, common sorgum; format: in vivo, Andropogon sorghum; conditions: 14 days after treatment
Method: as §1

[7] = tested on: TRZAW (Wheat); assay: Leaf treatment test, wheat; format: in vivo, Triticum aestivum L.; conditions: 14 days after treatment
Method: as §1

[8] = tested on: DIGSA (Large crabgrass); assay: Leaf treatment test, large crabgrass; format: in vivo, Digitaria Sanguinalis (L.) SCOP; conditions: 14 days after treatment
Method: as §1

[9] = tested on: GOSHI (Cotton); assay: Leaf treatment test, cotton; format: in vivo, Gossypium; conditions: 14 days after treatment
Method: as §1

[10] = tested on: rice; assay: Leaf treatment test, 4 leaves, rice (Table 7); format: in vivo, Oryza sativa L. cv. Dongjin
Method: as §1, §2

[11] = tested on: GLXMA (Soy bean); assay: Leaf treatment test, soy bean; format: in vivo, Glycine max (L.) MERR; conditions: 14 days after treatment
[12] = tested on: barnyard grass (ECHCG); assay: Experimental Example 2, herbicidal effect on barnyard grass ECHCG; format: in vivo, Eclzinocgloa crus-galli beauv. var. caudate Kitagawa; conditions: 1˜2 tillering, 200 g a.i per hactare on the leaves, Tech. 98%
Source text: (§3) Rice[Oryza sativa. L. cv.
(§4) The result is represented in the following table 8.

[13] = tested on: barnyard grass (ECHOR); assay: Experimental Example 2, herbicidal effect on barnyard grass ECHOR; format: in vivo, Ecliinocgloa crus-galli Beauv. var. orygicola Ohwi; conditions: 1˜2 tillering, 200 g a.i per hactare on the leaves, Tech. 98%
Source text: as §3, §4

[14] = tested on: Rice (ORYSA); conditions: 6.0˜6.5 leaves, 200 g a.i per hactare on the leaves, Tech. 98%
Method: Rice[Oryza sativa. L. cv. Chuchong(ORYSA)] and barnyard grass [Eclzinocgloa crus-galli beauv. var. caudate Kitagawa(ECHCG) and Ecliinocgloa crus-galli Beauv. var. orygicola Ohwi (ECHOR)] were planted and grown. The test compounds with 98% purity was dissolved in acetone containing tween-20 and diluted with water. Each maximum concentration of acetone and tween-20 were 25% and 0.1%.
The solution was sprayed in a proportion of 200 g a.i per hactare on the leaves. When rice{ORYSA} had 6.0˜6.5 leaves with 32.8 cm of the first leaf, barnyard grass(ECHOR) had 1˜2 tillering with 37.3 cm of the first leaf and barnyard grass(ECHCG) had 1˜2 tillering with 44.4 cm of the first leaf.
20 and 30 days after treatment (DAT) herbicidal effect and toxicity were measured.

| Compound | degree of damage to the plants (% damage) ([2]; treated amount 0.025 kg/ha) | degree of damage to the plants (% damage) ([2]; treated amount 0.1 kg/ha) [%] | degree of damage to the plants (% damage) ([2]; treated amount 0.4 kg/ha) [%] | degree of damage to the plants (% damage) ([3]; treated amount 0.025 kg/ha) | degree of damage to the plants (% damage) ([3]; treated amount 0.1 kg/ha) | degree of damage to the plants (% damage) ([3]; treated amount 0.4 kg/ha) | degree of damage to the plants (% damage) ([4]; treated amount 0.025 kg/ha) [%] | degree of damage to the plants (% damage) ([4]; treated amount 0.1 kg/ha) [%] | degree of damage to the plants (% damage) ([4]; treated amount 0.4 kg/ha) [%] | degree of damage to the plants (% damage) ([5]; treated amount 0.025 kg/ha) | degree of damage to the plants (% damage) ([5]; treated amount 0.1 kg/ha) [%] | degree of damage to the plants (% damage) ([5]; treated amount 0.4 kg/ha) [%] | degree of damage to the plants (% damage) ([6]; treated amount 0.025 kg/ha) [%] | degree of damage to the plants (% damage) ([6]; treated amount 0.1 kg/ha) [%] | degree of damage to the plants (% damage) ([6]; treated amount 0.4 kg/ha) [%] | degree of damage to the plants (% damage) ([7]; treated amount 0.025 kg/ha) [%] | degree of damage to the plants (% damage) ([8]; treated amount 0.025 kg/ha) [%] | degree of damage to the plants (% damage) ([8]; treated amount 0.1 kg/ha) [%] | degree of damage to the plants (% damage) ([8]; treated amount 0.4 kg/ha) [%] | degree of damage to the plants (% damage) ([9]; treated amount 0.025 kg/ha) [%] | other results |
| --- | --- | --- | --- | --- | --- | --- | --- | --- | --- | --- | --- | --- | --- | --- | --- | --- | --- | --- | --- | --- | --- |
| CC(Oc1ccc(Oc2nc3ccc(Cl)cc3o2)cc1)C(=O)N(C)c1ccccc1F (centres unmarked) [Compound No. 1, 2-[4-(6-Chloro-2-benzoxazoyloxy)-phenoxy]propionic Acid-N-(2-fluorophenyl)-N-methylamide] | 100% | 100 | 100 | 0% | 0% | 0% | 90 | 100 | 100 | 0% | 70 | 100 | 100 | 100 | 100 | 0 | 100 | 100 | 100 | 0 | degree of damage to the plants (% damage) ([1]; treated amount 0.016 kg/ha): 75%; degree of damage to the plants (% damage) ([1]; treated amount 0.063 kg/ha): 100%; degree of damage to the plants (% damage) ([1]; treated amount 0.25 kg/ha): 100%; degree of damage to the plants (% damage) ([1]; treated amount 1.0 kg/ha): 100%; degree of damage to the plants (% damage) ([7]; treated amount 0.1 kg/ha): 0%; degree of damage to the plants (% damage) ([7]; treated amount 0.4 kg/ha): 0%; degree of damage to the plants (% damage) ([9]; treated amount 0.1 kg/ha): 0%; degree of damage to the plants (% damage) ([9]; treated amount 0.4 kg/ha): 0%; degree of damage to the plants (% damage) ([10]; treated amount 0.016 kg/ha): 0%; degree of damage to the plants (% damage) ([10]; treated amount 0.063 kg/ha): 0%; degree of damage to the plants (% damage) ([10]; treated amount 0.25 kg/ha): 0%; degree of damage to the plants (% damage) ([10]; treated amount 1.0 kg/ha): 0%; degree of damage to the plants (% damage) ([11]; treated amount 0.025 kg/ha): 0%; degree of damage to the plants (% damage) ([11]; treated amount 0.1 kg/ha): 0%; degree of damage to the plants (% damage) ([11]; treated amount 0.4 kg/ha): 20% |
| CCOc1ccc(N(C)C(=O)C(C)Oc2ccc(Oc3nc4ccc(Cl)cc4o3)cc2)c(F)c1 (centres unmarked) [Compound No. 12] | 0% | 0 | 0 | 0% | 0% | 00% | 0 | 0 | 30 | 0% | 0 | 0 | 0 | 0 | 30 | 0 | 80 | 100 | 100 | 0 | degree of damage to the plants (% damage) ([7]; treated amount 0.1 kg/ha): 0%; degree of damage to the plants (% damage) ([7]; treated amount 0.4 kg/ha): 0%; degree of damage to the plants (% damage) ([9]; treated amount 0.1 kg/ha): 0%; degree of damage to the plants (% damage) ([9]; treated amount 0.4 kg/ha): 0%; degree of damage to the plants (% damage) ([11]; treated amount 0.025 kg/ha): 0%; degree of damage to the plants (% damage) ([11]; treated amount 0.1 kg/ha): 0%; degree of damage to the plants (% damage) ([11]; treated amount 0.4 kg/ha): 0% |
| CC(Oc1ccc(Oc2nc3ccc(Cl)cc3o2)cc1)C(=O)Nc1ccccc1F (centres unmarked) [control 1, 2-[4-(6-Chloro-2-benzoxazoyloxy)-phenoxy]propionic Acid-N-(2-fluorophenyl)amide, reference compound] | 100% and 95% | 100 | 100 | 35% and 40% | 50% and 70% | 70% and 90% | 100 | 100 | 100 | 100% and 80% | 100 | 100 | 100 | 100 | 100 | 0 | 100 | 100 | 100 | 0 | activity (0˜100), 20 DAT ECHCG [12]: 100; activity (0˜100), 20 DAT ECHOR [13]: 100; toxicity (0˜100) 20 DAT ([14]; 20 DAT): 22; toxicity (0˜100) 30 DAT ([14]; 30 DAT): 39; degree of damage to the plants (% damage) ([9]; treated amount 0.1 kg/ha): 0%; degree of damage to the plants (% damage) ([9]; treated amount 0.4 kg/ha): 0%; degree of damage to the plants (% damage) ([11]; treated amount 0.025 kg/ha): 0%; degree of damage to the plants (% damage) ([11]; treated amount 0.4 kg/ha): 40% and 30% |
| CCOC(=O)C(C)Oc1ccc(Oc2nc3ccc(Cl)cc3o2)cc1 (centres unmarked) [control 2, Fenoxaprop-ethyl, reference compound] | – | – | – | – | – | – | – | – | – | – | – | – | – | – | – | – | – | – | – | – | degree of damage to the plants (% damage) ([1]; treated amount 0.016 kg/ha): 95%; degree of damage to the plants (% damage) ([1]; treated amount 0.063 kg/ha): 100%; degree of damage to the plants (% damage) ([1]; treated amount 0.25 kg/ha): 100%; degree of damage to the plants (% damage) ([1]; treated amount 1.0 kg/ha): 100%; degree of damage to the plants (% damage) ([10]; treated amount 0.016 kg/ha): 20%; degree of damage to the plants (% damage) ([10]; treated amount 0.063 kg/ha): 30%; degree of damage to the plants (% damage) ([10]; treated amount 0.25 kg/ha): 70%; degree of damage to the plants (% damage) ([10]; treated amount 1.0 kg/ha): 85% |
